From publication PMC8279484 (Journal of Medicinal Chemistry, 2021)

What was measured:
Assay type in all cases: cell-based, human
THP-1 LUCIA monocytes [1] = assay: In vitro safety study: Safety index (Si), activity versus toxicity; conditions: for IC50: Homo sapiens, THP-1, highest IC50 among the LPS-challenged assays (NF-κB activity, cytokine, LDH release), read-out: Extrinsic Activity hIC50; for Safety Index TC50/IC50: ratio of intrinsic TC50 to extrinsic hIC50
Experimental: A postanalysis “safety study” was conducted on all QNX-sLXms. For each tested compound, we calculated an in vitro “Safety index” (Si) by relating its “anti-inflammatory half-maximal activity” (the highest dose among the IC50 of the extrinsic LPS-challenged phenotype: NF-κB activity, proinflammatory cytokine, and LDH release) to its intrinsic “toxicity” (expressed as the relative half-maximal LDH-associated cytotoxicity). The generated Si is potentially predictive of a translational “therapeutic” range: the higher the Si, the safer the molecule is. As summarized in Table S4, Si values from all tested compounds fall in a broad range (7–50).

THP-1 LUCIA monocytes [2] = assay: Intrinsic cytotoxicity: LDH release without LPS; conditions: for Intrinsic Toxicity Level: LDH-associated level of cytotoxicity (high / moderate / low); for Intrinsic Toxicity TC50 (pM): half-maximal intrinsic LDH-associated toxic activity, no LPS
Experimental: We investigated the potential cytotoxicity of all candidate sLXms by assaying LDH release.[50] The response to LPS was arbitrarily set to 100%, and values were expressed relative to this. As previously reported by others, LPS provokes LDH release.[51] […] Ultimately, untreated cells defined the spontaneous cell release thresholds.
Lactate dehydrogenase (LDH) was assayed in cell supernatants to investigate possible cytotoxicity of the lead compound. LDH is rapidly released into the culture medium after disruption of the plasma membrane.[67],[69] After 24 h of exposure to sLXms, vehicle, or controls, followed by LPS stimulation, as described above, THP-1-Lucia NF-κB-cell supernatants were collected and LDH was assayed. Cytotoxicity was evaluated relative to vehicle controls. Maximum releasable LDH was determined in cells lysed with 2% Triton-X-100 (Sigma-Aldrich, Ireland). LDH levels were assessed by reading the absorbance at 490 nm (protein) and 690 nm (background noise), using a spectrophotometer (SPECTRAMAX M2, Molecular Devices (U.K.) Limited).

IFNγ = assay: LPS-induced IFNγ release from THP-1 Lucia monocytes (multiplex electrochemiluminescence)
Experimental: (§1) LXA41 and all of the tested sLXms were dissolved in ethanol and further diluted in a culture medium (final ethanol concentration 0.1%; equivalent concentrations were used as the vehicle control). Prior to in vitro experiments, THP-1-Lucia NF-κB cells were harvested and plated at 1 × 10^5 cells/well on 96-well plates and left to settle in the incubator at 37 °C, 95% humidity, and 5% CO2, in 0.1% FBS-containing media, pretreated for 30 min with increasing doses of LXA41, sLXms (from 10^–12 to 10^–6 M), or appropriate controls, followed by stimulation with 50 ng/mL LPS for 24 h. Untreated (Unt) or vehicle-treated (Veh) cells were used as negative controls; 1 pM (1R)-5, the (1R)-epimer of the benzo-mimetic, was used as a positive control for any aromatic mimetic; and, finally, we compared the observed effects to the conventional glucocorticoid dexamethasone (Dex) treatment, at 1 μM.
(§2) After 24 h of exposure to LXA41, sLXms, or vehicle, followed by LPS stimulation (50 ng/mL), as described above, THP-1-Lucia NF-κB-cell supernatants were collected and cleared by centrifugation. Concentrations of IFN-γ, IL-1β, IL-6, IL-8, IL-10, IL-12p70, and TNF-α in culture supernatants were assessed by electro-chemi-luminescent detection, using a commercially available human 96-well plate “multiplex” (several analytes in the same well) kit for tissue culture samples, according to the manufacturers’ guidelines.
(§3) The “coding” of the heat-map indicates the arbitrary criteria to assign points to each single PD component (efficacy = Imax or Emax; potency = IC50 or EC50; slope = HS) to generate a final (aggregate) relative PD score. If a single PD component was greater than the reference level (x > 1), then the single-component relative score was arbitrarily set to +1 (light green) or +2 (dark green). If a single PD component was equal to the reference level (x = 1), then the single-component relative score was arbitrarily set to 0 (gray). If a single PD component was smaller than the reference level (x < 1), then the single-component relative score was arbitrarily set to −1 (light red) or −2 (dark red). If the curve of a single PD component was best fitting to a flat line (x = 0), then the single-component relative score was arbitrarily set to −4 (purple) (Table S1).

NF-κB = assay: LPS-induced NF-κB-driven luciferase gene reporter assay in THP-1 Lucia monocytes; conditions: for Rel. Slope: HS relative to LXA4 (1); for IC50: Homo sapiens, THP-1, read-out: Potency IC50; for Potency Rel. Pot.: IC50 relative to LXA4 (1); for Efficacy Rel. Eff.: Imax relative to LXA4 (1); for reduction of LPS-induced NF-κB-driven luciferase activity: approximate extent; for reduction of LPS-induced NF-κB-driven luciferase activity / Imax (%): 1 pM–1 μM; for Imax (%): maximal % inhibition of LPS (50 ng/mL)-stimulated NF-κB luciferase activity, 30 min pretreatment; for (Single component) Rel. Score: Rel. Pot. / (Single component) Rel. Score: Rel. Sl.: score relative to LXA4 (1); for (Aggregate) Rel. PD Score: sum of efficacy, potency, slope scores relative to LXA4 (1)
Experimental: Mycoplasma-free THP-1-Lucia NF-κB cells were grown in an RPMI 1640 (Gibco) medium containing 2 mM L-glutamine, 1.50 g/L sodium bicarbonate, 4.50 g/L glucose, 10 mM N-(2-hydroxyethyl)piperazine-N′-ethanesulfonic acid (HEPES), and 1 mM sodium pyruvate. Then, 10% heat-inactivated fetal bovine serum (FBS) (30 min at 56 °C), 100 μg/mL Normocin, and Pen-Strep (50 U/mL to 50 μg/mL) were also added to the growth media. As THP-1-Lucia cells were resistant to Zeocin, the latter was used as a selective antibiotic (a high dose, i.e., 100 μg/mL, was alternated every 2 weeks with a low dose, i.e., 10 μg/mL).
LXA41 and all of the tested sLXms were dissolved in ethanol and further diluted in a culture medium (final ethanol concentration 0.1%; equivalent concentrations were used as the vehicle control). Prior to in vitro experiments, THP-1-Lucia NF-κB cells were harvested and plated at 1 × 10^5 cells/well on 96-well plates and left to settle in the incubator at 37 °C, 95% humidity, and 5% CO2, in 0.1% FBS-containing media, pretreated for 30 min with increasing doses of LXA41, sLXms (from 10^–12 to 10^–6 M), or appropriate controls, followed by stimulation with 50 ng/mL LPS for 24 h.
NFκB activity was monitored in the human THP-1 monocytic leukemia cell line containing a stably integrated NF-κB-inducible Lucia reporter construct (as previously reported).[21] When stimulated with LPS, the transcription factor NF-κB is activated, upregulating the synthesis of proinflammatory mediators, thus bringing about an inflammatory response. In these cells, NF-κB activation is linked to a […] luciferase gene and can be measured using luminescence.
Heat-killed listeria monocytogenes (HKLM) (10^8/mL) was used as a positive control.[28] The levels of NF-κB-induced Luciferase were then measured in a culture supernatant using QUANTI-Luc as the detection reagent, and measurements were taken on a bioluminescence reader.
After 24 h, the levels of NF-κB-induced Lucia were assayed in a cell culture supernatant using QUANTI-Luc, as a detection reagent, on a bioluminescence reader (Synergy HT, BioTek Instruments, Inc. Vermont). Aliquots of the supernatant were retained for subsequent cytokine and LDH assays. Cellular proteins were extracted with a radioimmunoprecipitation assay (RIPA) buffer (Thermo Fisher, Ireland), supplemented with protease inhibitors (Sigma-Aldrich, Ireland). Lysates were clarified by centrifugation (3200g, 10’, 4 °C) to remove cell debris, and the cell protein level was quantified by performing a bicinchoninic acid (BCA) assay (as per the manufacturer’s instructions) reading the protein absorbance at 570 nm, using a spectrophotometer (SPECTRAMAX M2, Molecular Devices (U.K.) Limited). A “relative luminescence unit” (RLU) was obtained using the average value of the lum/abs ratio of two replicates.
The “coding” of the heat-map indicates the arbitrary criteria to assign points to each single PD component (efficacy = Imax or Emax; potency = IC50 or EC50; slope = HS) to generate a final (aggregate) relative PD score. […] If a single PD component was equal to the reference level (x = 1), then the single-component relative score was arbitrarily set to 0 (gray). If a single PD component was smaller than the reference level (x < 1), then the single-component relative score was arbitrarily set to −1 (light red) or −2 (dark red). If the curve of a single PD component was best fitting to a flat line (x = 0), then the single-component relative score was arbitrarily set to −4 (purple) (Table S1).

IL-6 = assay: LPS-induced IL-6 release from THP-1 Lucia monocytes (multiplex electrochemiluminescence)
Experimental: as §1, §2, §3

IL-1β = assay: LPS-induced IL-1β release from THP-1 Lucia monocytes (multiplex electrochemiluminescence)
Experimental: as §1, §2, §3

[3] = Homo sapiens, THP-1, LPS 50 ng/mL, 24 h
[4] = concentration–response, LPS 50 ng/mL, 24 h

CCCCCCC[C@@H](O)c1nc2ccccc2nc1/C=C/[C@@H](O)[C@@H](O)CCCC(=O)OC [(R)-8, Methyl (5S,6R,E)-5,6-Dihydroxy-8-(3-((R)-1-hydroxyoctyl)quinoxalin-2-yl)oct-7-enoate]
IC50 (THP-1 LUCIA monocytes [1]): 0.2 nM | Safety Index TC50/IC50 (THP-1 LUCIA monocytes [1]): 50 | Intrinsic Toxicity Level (THP-1 LUCIA monocytes [2]): Low-Mod. | Intrinsic Toxicity TC50 (pM) (THP-1 LUCIA monocytes [2]): 10,000 pM | PD score, IFNγ release (IFNγ; relative to LXA4 (1)): negative PD scores | Rel. Slope (NF-κB): 0.49 | IC50 (NF-κB; LPS 50 ng/mL, 24 h): 0.04 nM | Potency Rel. Pot. (NF-κB): 1.5 | Efficacy Rel. Eff. (NF-κB): 0.96 | IC50 (range in words) (NF-κB; LPS 50 ng/mL, 24 h): “pM” range | reduction of LPS-induced NF-κB-driven luciferase activity (NF-κB): 10–20% | Imax (%) (NF-κB; 24 h): 23 ± 7% | (Single component) Rel. Score: Rel. Pot. (NF-κB): 1 (1 < x < 5) | (Single component) Rel. Score: Rel. Sl. (NF-κB): -1 (0.01 < x < 1) | (Aggregate) Rel. PD Score (NF-κB): 0

CCCCC[C@H](O)c1nc2ccccc2nc1/C=C/[C@@H](O)[C@@H](O)CCCC(=O)OC [(S)-6, Methyl (5S,6R,E)-5,6-Dihydroxy-8-(3-((S)-1-hydroxyhexyl)quinoxalin-2-yl)oct-7-enoate]
IC50 (IL-6; [3]): 1 pM | Imax, IL-6 release (IL-6; [4]): 98 ± 1% | PD score, IL-6 release (IL-6; relative to LXA4 (1)): +2 | rel. slope, IL-6 release (IL-6; relative to LXA4 (1)): 2.4 | Imax, IL-1β release (IL-1β; [4]): completely lost the protective effect | PD score, IL-1β release (IL-1β; relative to LXA4 (1)): −6 | IC50 (THP-1 LUCIA monocytes [1]): 0.02 nM | Safety Index TC50/IC50 (THP-1 LUCIA monocytes [1]): 10 | Intrinsic Toxicity Level (THP-1 LUCIA monocytes [2]): Low-Mod. | Intrinsic Toxicity TC50 (pM) (THP-1 LUCIA monocytes [2]): 200 pM | IC50 (IFNγ; [3]): 2 nM | Imax, IFNγ release (IFNγ; [4]): 74 ± 4% | Rel. Slope (NF-κB): 0.47 | Efficacy Rel. Eff. (NF-κB): 1.42 | reduction of LPS-induced NF-κB-driven luciferase activity (NF-κB): 25–35% | Imax (%) (NF-κB; 24 h): 34 ± 9% | (Single component) Rel. Score: Rel. Sl. (NF-κB): 1 (1 < x < 10)

CCCCC[C@H](O)c1nc2ccccc2nc1/C=C/[C@H]1OC(C)(C)O[C@H]1CCCC(=O)OC [(S)-17, Methyl 4-((4S,5R)-5-((E)-2-(3-((S)-1-Hydroxyhexyl)quinoxalin-2-yl)vinyl)-2,2-dimethyl-1,3-dioxolan-4-yl)butanoate]
IC50 (THP-1 LUCIA monocytes [1]): 0.003 nM | Safety Index TC50/IC50 (THP-1 LUCIA monocytes [1]): 33 | Intrinsic Toxicity TC50 (pM) (THP-1 LUCIA monocytes [2]): 100 pM | Rel. Slope (NF-κB): 0 | IC50 (NF-κB; LPS 50 ng/mL, 24 h): 0.003 nM | Potency Rel. Pot. (NF-κB): 24 | Efficacy Rel. Eff. (NF-κB): 0.79 | reduction of LPS-induced NF-κB-driven luciferase activity (NF-κB): least effective | Imax (%) (NF-κB; 24 h): 19 ± 3% | (Single component) Rel. Score: Rel. Pot. (NF-κB): 2 (x ≥ 5) | (Single component) Rel. Score: Rel. Sl. (NF-κB): -4 (x = 0) | Slope HS (Hill–Slope) (NF-κB; slope of concentration–response curve): 0 | (Aggregate) Rel. PD Score (NF-κB): -3
